Activity calls are given as the source filed them.
Experiments:
[1] = growth suppression of PTEN-null colon cells, dose response, cell-based, HCT116 PTEN knockout (AID 1047); format: functional;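 further: HCT116 colon tumor cells with PTEN knocked out; cells exposed to compound for 60 hours before readout; potency for loss of cell viability measured by luminescence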
INS1 = assay: beta cell apoptosis inhibitors, cytokine rescue, dose response, luminescence, retest (AID 449756); format: functional, cell-based; settings: Rattus norvegicus;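 further: cell death triggered by IL-1 beta plus TNF-alpha plus IFN-gamma mixture; protective hits raise ATP signal compared with cytokine alone wells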
[2] = microbe, parasite or virus in culture; format: functional; settings: Mycobacterium tuberculosis
[3] = growth suppression of beta-catenin-knockout colon cells, dose response, cell-based, HCT116, human colon tumor (AID 1045); format: functional;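 further: HCT116 colon tumor cells with beta catenin knocked out; cells exposed to compound for 60 hours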
cells [4] = format: functional, cell-based
cells [5] = format: functional, cell-based; remark: listed apart in the source
[6] = target: Voltage-dependent T-type calcium channel subunit alpha-1H (Homo sapiens, UniProt O95180); format: functional;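 further: channel activity triggered by adding a high calcium stimulation buffer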
Aminopeptidase N = target: T1, Aminopeptidase N (Plasmodium falciparum FcB1/Columbia, UniProt O96935); assay: P. falciparum M1AAP inhibitors, biochemical, fluorogenic H-Leu-NHMec substrate, 1536-well (AID 1445); design: species or system Plasmodium falciparum 3D7, 3D7
T1 sequence (O96935 whole entry): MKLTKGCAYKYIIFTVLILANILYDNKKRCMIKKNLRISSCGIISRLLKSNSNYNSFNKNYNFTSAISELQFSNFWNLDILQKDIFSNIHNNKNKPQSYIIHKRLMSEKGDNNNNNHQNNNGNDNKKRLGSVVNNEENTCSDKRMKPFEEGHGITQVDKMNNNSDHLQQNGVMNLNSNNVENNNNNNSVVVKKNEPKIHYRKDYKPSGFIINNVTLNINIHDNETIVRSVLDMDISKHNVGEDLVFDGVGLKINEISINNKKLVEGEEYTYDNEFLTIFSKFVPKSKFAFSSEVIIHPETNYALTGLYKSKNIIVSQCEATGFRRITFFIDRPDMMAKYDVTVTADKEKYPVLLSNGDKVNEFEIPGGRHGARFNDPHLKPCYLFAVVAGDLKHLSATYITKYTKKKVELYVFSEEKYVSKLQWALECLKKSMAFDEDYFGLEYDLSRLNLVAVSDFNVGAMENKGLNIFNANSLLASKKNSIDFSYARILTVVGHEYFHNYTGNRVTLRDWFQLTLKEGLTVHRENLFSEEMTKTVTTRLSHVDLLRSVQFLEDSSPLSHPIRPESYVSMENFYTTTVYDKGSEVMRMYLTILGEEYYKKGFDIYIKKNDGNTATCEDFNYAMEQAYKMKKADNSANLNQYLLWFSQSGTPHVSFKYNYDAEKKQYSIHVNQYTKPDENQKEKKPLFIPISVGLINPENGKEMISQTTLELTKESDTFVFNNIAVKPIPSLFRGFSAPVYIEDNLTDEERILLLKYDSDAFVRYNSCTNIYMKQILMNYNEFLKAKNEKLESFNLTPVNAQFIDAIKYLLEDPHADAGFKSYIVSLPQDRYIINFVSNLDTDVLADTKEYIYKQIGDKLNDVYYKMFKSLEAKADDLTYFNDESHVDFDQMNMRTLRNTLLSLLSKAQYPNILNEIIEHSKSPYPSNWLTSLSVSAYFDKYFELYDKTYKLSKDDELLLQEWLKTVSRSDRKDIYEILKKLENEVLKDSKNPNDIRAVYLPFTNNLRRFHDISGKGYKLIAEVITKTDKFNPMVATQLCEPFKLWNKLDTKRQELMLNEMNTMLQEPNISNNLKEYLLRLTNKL

[7] = target: FAD-linked sulfhydryl oxidase ALR (Homo sapiens, UniProt P55789); assay: inhibitors of human ALR sulfhydryl oxidase, dose response, biochemical, H2O2 detection, luminescence, cherry-pick (AID 493248)
[8] = inhibitors of intracellular T. cruzi replication, confirmation, NIH3T3 host cells, beta-gal luminescence (AID 2044); format: functional, cell-based;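 further: intracellular parasites grown in NIH/3T3 mouse fibroblasts as host cells; luminescent beta-galactosidase reporter signal from transgenic T. cruzi replicating inside host cells; inhibitors lower the luminescence signal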
[9] = cytotoxicity toward NIH3T3 fibroblasts, dose response, counter-screen, cell-based, ATP luminescence, mouse fibroblasts (AID 2010); format: functional;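 further: cells exposed to compound for about 90 hours before reading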
[10] = Luminescence Cell-Based Dose Retest to Confirm Inhibitors of Cancer Stem Cells. [Related pubchem assays (depositor defined):AID2717, AID2721]; format: functional, Homo sapiens; settings: Homo sapiens
[11] = target: T2, Heat shock factor protein 1 (Mus musculus, UniProt P38532); assay: HSF1 potentiators in luciferase reporter cells, confirmation, cell-based, NIH3T3, luminescence, dose retest (AID 435004); format: functional;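 further: stress induced by proteasome inhibitor MG132 added 30 min after compound; luciferase reporter driven by HSF1 response element in NIH3T3 cells; actives raise luminescence as potentiators of the MG132 stress response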
T2 sequence (P38532 whole entry): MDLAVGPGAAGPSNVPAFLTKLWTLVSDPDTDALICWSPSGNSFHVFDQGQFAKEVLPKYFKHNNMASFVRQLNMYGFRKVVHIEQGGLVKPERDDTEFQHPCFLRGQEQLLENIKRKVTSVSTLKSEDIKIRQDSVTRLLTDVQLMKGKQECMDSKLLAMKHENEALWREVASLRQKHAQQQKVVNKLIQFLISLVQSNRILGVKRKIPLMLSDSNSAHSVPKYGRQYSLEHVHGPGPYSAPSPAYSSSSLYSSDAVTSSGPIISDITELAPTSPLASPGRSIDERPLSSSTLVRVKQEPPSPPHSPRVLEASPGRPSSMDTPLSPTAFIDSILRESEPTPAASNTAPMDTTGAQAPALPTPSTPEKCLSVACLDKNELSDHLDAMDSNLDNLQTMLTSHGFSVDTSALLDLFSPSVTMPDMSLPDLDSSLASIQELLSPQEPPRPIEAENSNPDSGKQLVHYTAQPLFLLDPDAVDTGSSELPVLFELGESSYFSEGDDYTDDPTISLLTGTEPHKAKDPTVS

[12] = target: T3, Calpain-2 catalytic subunit (Sus scrofa, UniProt P43367); assay: pig calpain II inhibitor potency, dose response, biochemical, fluorogenic peptide substrate (AID 1420); format: functional
T3 sequence (P43367 whole entry): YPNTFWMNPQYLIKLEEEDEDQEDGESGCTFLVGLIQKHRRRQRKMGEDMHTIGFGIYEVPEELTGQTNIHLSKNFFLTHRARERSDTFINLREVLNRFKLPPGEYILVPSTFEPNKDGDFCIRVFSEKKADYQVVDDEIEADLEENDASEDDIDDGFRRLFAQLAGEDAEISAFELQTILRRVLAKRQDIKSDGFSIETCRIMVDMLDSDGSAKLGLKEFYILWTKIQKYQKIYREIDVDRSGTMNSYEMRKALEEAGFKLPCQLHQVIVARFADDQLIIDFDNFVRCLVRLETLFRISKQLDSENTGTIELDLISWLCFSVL

[13] = cytotoxicity in OVCAR8 ovarian cancer cells, dose response, PAX8 project, cell-based, plate reader, dry powder samples (AID 743197); format: functional; settings: OVCAR-8
Paired box protein Pax-8 = Paired box protein Pax-8 (Homo sapiens, UniProt Q06710); assay: inhibitors of PAX8-driven TPO luciferase reporter, dose response, RMG-I cells, cherry-pick (AID 687027); format: functional, cell-based;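 further: luciferase reporter driven by Pax8 target thyroperoxidase promoter measured by SteadyGlo luminescence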
[14] = NIH:OVCAR-3 ovarian cancer cell cytotoxicity, dose response, PAX8 inhibitor project, plate reader, dry powder samples (AID 743044); format: functional, cell-based
[15] = P. falciparum Dd2 growth inhibitors, dose response, SYBR Green, cherry-picked samples (AID 1159567); format: functional, cell-based

Chain of Paired box protein Pax-8 (Q06710 whole entry): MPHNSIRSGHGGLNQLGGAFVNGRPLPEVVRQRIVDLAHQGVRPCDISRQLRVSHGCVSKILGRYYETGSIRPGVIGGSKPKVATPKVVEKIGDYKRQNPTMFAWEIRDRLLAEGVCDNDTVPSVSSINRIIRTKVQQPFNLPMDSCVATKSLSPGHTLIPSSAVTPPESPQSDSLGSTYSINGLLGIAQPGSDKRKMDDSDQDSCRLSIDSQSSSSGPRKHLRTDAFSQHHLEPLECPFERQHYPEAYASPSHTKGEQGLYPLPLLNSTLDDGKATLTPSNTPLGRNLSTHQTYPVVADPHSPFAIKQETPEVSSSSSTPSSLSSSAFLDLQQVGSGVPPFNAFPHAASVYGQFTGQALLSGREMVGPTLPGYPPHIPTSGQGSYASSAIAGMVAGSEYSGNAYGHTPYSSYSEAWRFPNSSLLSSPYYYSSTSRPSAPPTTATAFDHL
Chain of Voltage-dependent T-type calcium channel subunit alpha-1H (O95180 whole entry): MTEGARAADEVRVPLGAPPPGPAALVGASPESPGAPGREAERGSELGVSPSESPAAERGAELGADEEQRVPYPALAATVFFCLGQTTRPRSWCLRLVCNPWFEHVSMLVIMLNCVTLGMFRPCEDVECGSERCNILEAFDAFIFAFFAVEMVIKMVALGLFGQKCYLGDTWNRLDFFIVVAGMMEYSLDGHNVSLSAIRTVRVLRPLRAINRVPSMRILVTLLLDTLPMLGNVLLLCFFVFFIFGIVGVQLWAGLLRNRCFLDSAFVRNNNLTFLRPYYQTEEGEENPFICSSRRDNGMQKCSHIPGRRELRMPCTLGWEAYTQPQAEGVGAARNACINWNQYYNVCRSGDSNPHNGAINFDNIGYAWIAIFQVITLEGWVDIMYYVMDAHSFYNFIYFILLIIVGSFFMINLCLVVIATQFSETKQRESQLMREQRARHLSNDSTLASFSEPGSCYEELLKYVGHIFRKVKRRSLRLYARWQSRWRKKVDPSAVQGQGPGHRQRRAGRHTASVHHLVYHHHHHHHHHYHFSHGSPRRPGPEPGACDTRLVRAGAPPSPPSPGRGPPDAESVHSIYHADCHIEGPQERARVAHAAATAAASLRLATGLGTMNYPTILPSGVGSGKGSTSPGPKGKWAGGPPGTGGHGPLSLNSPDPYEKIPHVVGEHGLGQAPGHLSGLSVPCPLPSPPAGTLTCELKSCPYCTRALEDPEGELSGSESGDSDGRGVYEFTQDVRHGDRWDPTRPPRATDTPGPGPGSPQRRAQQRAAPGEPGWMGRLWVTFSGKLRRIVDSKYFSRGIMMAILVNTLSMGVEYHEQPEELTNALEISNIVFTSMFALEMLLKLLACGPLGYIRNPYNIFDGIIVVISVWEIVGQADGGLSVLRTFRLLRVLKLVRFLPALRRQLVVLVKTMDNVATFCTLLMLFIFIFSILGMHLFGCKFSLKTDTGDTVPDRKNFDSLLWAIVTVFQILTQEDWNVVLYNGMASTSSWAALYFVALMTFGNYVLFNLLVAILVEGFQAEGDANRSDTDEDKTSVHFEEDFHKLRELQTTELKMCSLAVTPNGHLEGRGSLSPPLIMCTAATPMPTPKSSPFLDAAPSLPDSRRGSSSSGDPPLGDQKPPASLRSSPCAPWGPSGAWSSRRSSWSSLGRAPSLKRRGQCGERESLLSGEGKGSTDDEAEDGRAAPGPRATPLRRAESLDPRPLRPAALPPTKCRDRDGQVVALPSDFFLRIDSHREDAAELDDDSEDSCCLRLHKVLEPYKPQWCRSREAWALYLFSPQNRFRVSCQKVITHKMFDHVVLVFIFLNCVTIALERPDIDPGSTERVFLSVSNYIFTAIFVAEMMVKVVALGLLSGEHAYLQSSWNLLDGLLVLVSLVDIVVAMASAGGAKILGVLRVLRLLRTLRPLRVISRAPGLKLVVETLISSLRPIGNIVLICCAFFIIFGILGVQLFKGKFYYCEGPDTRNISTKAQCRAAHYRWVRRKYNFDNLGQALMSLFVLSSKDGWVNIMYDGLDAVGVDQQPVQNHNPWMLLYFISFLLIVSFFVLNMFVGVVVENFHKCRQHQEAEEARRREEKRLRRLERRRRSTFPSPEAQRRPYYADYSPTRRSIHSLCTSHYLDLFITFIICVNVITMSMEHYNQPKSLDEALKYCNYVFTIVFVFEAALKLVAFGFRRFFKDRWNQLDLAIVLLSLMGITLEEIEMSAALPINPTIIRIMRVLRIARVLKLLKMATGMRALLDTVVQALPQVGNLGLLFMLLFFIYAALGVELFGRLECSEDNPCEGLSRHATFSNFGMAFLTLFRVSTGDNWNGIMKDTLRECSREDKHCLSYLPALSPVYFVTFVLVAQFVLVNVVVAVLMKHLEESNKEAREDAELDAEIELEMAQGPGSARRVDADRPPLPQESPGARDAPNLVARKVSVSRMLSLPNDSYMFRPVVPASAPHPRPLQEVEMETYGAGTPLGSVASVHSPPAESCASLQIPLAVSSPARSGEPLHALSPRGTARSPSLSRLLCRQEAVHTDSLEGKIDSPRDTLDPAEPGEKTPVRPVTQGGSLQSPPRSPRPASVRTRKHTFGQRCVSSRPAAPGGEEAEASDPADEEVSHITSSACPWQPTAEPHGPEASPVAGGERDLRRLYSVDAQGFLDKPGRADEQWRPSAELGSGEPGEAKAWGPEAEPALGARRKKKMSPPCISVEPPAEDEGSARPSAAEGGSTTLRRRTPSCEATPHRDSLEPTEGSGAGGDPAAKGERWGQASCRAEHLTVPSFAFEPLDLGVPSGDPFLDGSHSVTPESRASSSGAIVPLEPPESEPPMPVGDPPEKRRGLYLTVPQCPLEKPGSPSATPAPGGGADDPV
Chain of FAD-linked sulfhydryl oxidase ALR (P55789 whole entry): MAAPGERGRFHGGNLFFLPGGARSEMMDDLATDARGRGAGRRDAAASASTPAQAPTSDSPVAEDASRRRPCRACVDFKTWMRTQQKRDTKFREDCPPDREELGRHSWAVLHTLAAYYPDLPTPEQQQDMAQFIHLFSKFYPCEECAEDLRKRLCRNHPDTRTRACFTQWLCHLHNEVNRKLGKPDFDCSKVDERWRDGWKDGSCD

Structure (SMILES): Cc1nc(Nc2ccc(Cl)c(Cl)c2)sc1C(=O)Nc1ccccc1
- EC50 [1]: 19.8 µM (active)
- AC50 (INS1): 7.01 µM (active)
- CC50 [2]: 27.2 µM (active)
- EC50 [3]: 21.9 µM (active)

Structure (SMILES): CC(=O)c1cccc(N(C(=O)c2ccccn2)C(C(=O)NC2CCCCC2)c2ccccc2)c1 (configuration not stated)
- EC50 (cells [4]): > 350 µM (not active)
- EC50 (cells [5]): > 350 µM (not active)

Structure (SMILES): O=S(=O)(Nc1nc2ccccc2nc1Nc1ccc2c(c1)OCCO2)c1cccs1
- EC50 [6]: 9.65 µM (active)

Structure (SMILES): COc1ccc(-c2cn3nc(SCC(=O)NCC4CCCO4)ccc3n2)cc1 (configuration not stated)
- EC50 (cells [4]): 9.41 µM (active)
- EC50 (cells [5]): > 350 µM (not active)

Structure (SMILES): CNNC(=O)C(C)NC(=O)c1ccc(Br)cc1 (configuration not stated)
- EC50 (cells [4]): > 350 µM (not active)
- EC50 (cells [5]): > 350 µM (not active)

Structure (SMILES): O=C(NC1CCN(Cc2ccccc2)CC1)c1cccc(S(=O)(=O)Nc2ccc(SC(F)F)cc2)c1
- CC50 [2]: 32.7 µM (active)

Structure (SMILES): CCCCc1cc(=O)oc2c(CN(CC)CC)c(O)c(Cl)cc12
- IC50 (Aminopeptidase N): 41.5 µM (active)

Structure (SMILES): Cc1ccc(S(=O)(=O)NC2=NC(=O)/C(=C\c3ccco3)S2)cc1
- IC50 (Aminopeptidase N): 94 µM (active)

Structure (SMILES): Cc1ccc(-c2nc(C[S+]([O-])CC(=O)NCc3ccc(Cl)cc3)c(C)o2)cc1 (configuration not stated)
- EC50 [6]: 2 µM (active)

Structure (SMILES): CN(CC(=O)Nc1ccc(F)c(F)c1F)C(=O)/C=C/c1ccc(Cl)cc1
- EC50 (cells [4]): 155 µM (active)
- EC50 (cells [5]): > 350 µM (not active)

Structure (SMILES): O=C(O)c1ccc(S(=O)(=O)Nc2ccc(O)c(Sc3nc4ccccc4s3)c2)cc1
- AC50 [7]: 0.236 µM (active)
- IC50 (Aminopeptidase N): 104 µM (active)

Structure (SMILES): CCCOc1ccc(C(=O)c2nc3c(n2O)CCCCC3)cc1
- CC50 [2]: > 40 µM (active)

Structure (SMILES): Cc1ccc(C)c(CS(=O)(=O)c2cn(CC(=O)N3CCCCC3)c3ccccc23)c1
- IC50 (Aminopeptidase N): 94.5 µM (active)

Structure (SMILES): Cc1nc(NCCc2ccccc2)c2oc3ccccc3c2n1
- CC50 [2]: 31.6 µM (active)

Structure (SMILES): Cc1nn(Cc2ccc(Cl)cc2Cl)c(C)c1NC(=O)c1ccc(COc2cc(Cl)ccc2Cl)o1
- EC50 [8]: 1.5 µM (active)
- EC50 [6]: 17.5 µM (active)
- EC50 [9]: > 60 µM (not active)

Structure (SMILES): O=C(NC(=S)Nc1cccc([N+](=O)[O-])c1)c1ccco1
- EC50 (cells [4]): > 350 µM (not active)
- EC50 (cells [5]): > 350 µM (not active)

Structure (SMILES): Cc1nc(CS(=O)(=O)c2ccc(Cl)cc2)cc(Sc2ccccc2Cl)n1
- EC50 [6]: 4.3 µM (active)

Structure (SMILES): CC(=O)N1CCN(c2ccc(Oc3ccc([N+](=O)[O-])c(C(F)(F)F)c3)cc2)CC1
- AC50 (INS1): 5.74 µM (active)
- CC50 [2]: > 40 µM (active)

Structure (SMILES): O=C(Nc1ccn(Cc2ccccc2F)n1)c1ccc(COc2ccc(Cl)cc2Cl)o1
- AC50 [10]: 2.03 µM (active)
- EC50 [6]: 10.3 µM (active)
- EC50 [11]: 20.8 µM (active)

Structure (SMILES): COc1ccc(C(=O)NCCCOC(=O)c2ccc(OC)cc2)cc1
- EC50 (cells [4]): > 350 µM (not active)
- EC50 (cells [5]): > 350 µM (not active)

Structure (SMILES): O=C(CSc1nc(O)c2c(C(F)(F)F)cc(-c3cccs3)nc2n1)NCc1ccco1
- IC50 (Aminopeptidase N): 103 µM (active)

Structure (SMILES): Cc1ccc(C)c(OCCCC(=O)Nc2nccs2)c1
- EC50 [6]: 3.06 µM (active)
- IC50 [12]: > 50 µM (not active)

Structure (SMILES): O=C(c1ccc(Cl)cc1Cl)N1CCN(c2ccc(N3CCOCC3)nn2)CC1
- EC50 (cells [4]): > 350 µM (not active)
- EC50 (cells [5]): > 350 µM (not active)

Structure (SMILES): CCn1c(COc2cccc(C)c2)nc2ccccc21
- EC50 [6]: 13 µM (active)

Structure (SMILES): O=C(O)c1ccccc1-c1nc(-c2ccccc2)c(-c2ccccc2)[nH]1
- IC50 (Aminopeptidase N): 46.6 µM (active)

Structure (SMILES): O=C(/C=C/c1cccnc1)c1cccc(O)c1
- CC50 [2]: 15.6 µM (active)

Structure (SMILES): CC(=O)Nc1ccc(S(=O)(=O)Oc2cccc(/C=N/NC3=NC(=O)C(CC(=O)O)S3)c2)cc1 (configuration not stated)
- IC50 (Aminopeptidase N): 52.8 µM (active)

Structure (SMILES): COc1ccc(/C=N/Nc2ncnc3sc4c(c23)CCCC4)cc1OC
- EC50 (cells [4]): > 350 µM (not active)
- EC50 (cells [5]): > 350 µM (not active)

Structure (SMILES): C[C@@H]1CCCCO[C@@H](CN(C)Cc2ccc(Cl)c(Cl)c2)[C@H](C)CN([C@H](C)CO)C(=O)c2cc(NS(=O)(=O)c3ccc(F)cc3)ccc2O1
- AC50 [13]: > 70 µM (inactive)
- AC50 (Paired box protein Pax-8): 8.2 µM (active)

Structure (SMILES): C[C@@H]1CN([C@H](C)CO)C(=O)c2cc(NC(=O)Nc3ccccc3)ccc2O[C@@H](C)CCCCO[C@H]1CN(C)C(=O)Nc1ccc(C(F)(F)F)cc1
- AC50 [13]: > 70 µM (inactive)
- AC50 (Paired box protein Pax-8): 10.8 µM (active)
- AC50 [14]: 46.2 µM (active)

Structure (SMILES): C[C@H](CO)N1C[C@H](C)[C@H](CN(C)S(=O)(=O)c2ccc(F)cc2)OCCCC[C@H](C)Oc2ccc(NC(=O)Nc3ccc(F)cc3)cc2C1=O
- AC50 [13]: > 70 µM (inactive)
- AC50 (Paired box protein Pax-8): 7.09 µM (active)

Structure (SMILES): C[C@@H]1CN([C@H](C)CO)C(=O)c2cc(NC(=O)Nc3ccccc3)ccc2O[C@@H](C)CCCCO[C@@H]1CN(C)CC1CCCCC1
- AC50 [13]: 53.5 µM (active)
- AC50 (Paired box protein Pax-8): 5.42 µM (active)
- AC50 [14]: 34.3 µM (active)

Structure (SMILES): CCOC(=O)CCCc1ccc(/C(C)=N/NC(N)=S)cc1
- CC50 [2]: > 40 µM (active)

Structure (SMILES): COc1cccc(C#Cc2ccc([C@@H]3[C@@H](C#N)N(C(=O)c4ccccn4)[C@H]3CO)cc2)c1
- AC50 [15]: 3.29 µM (active)

Structure (SMILES): C[C@@H]1CN([C@H](C)CO)C(=O)c2c(c3ccccc3n2C)-c2ccccc2CO[C@H]1CN(C)S(=O)(=O)c1ccsc1
- AC50 [15]: 4.22 µM (active)

Structure (SMILES): COc1ccc(C#Cc2ccc3c(c2)[C@@H]2[C@@H](CCN2C(=O)C2CCCC2)[C@H](CO)N3)cc1
- AC50 [15]: 3.97 µM (active)

Structure (SMILES): CCN1CCN(c2ncnc3ccc(Br)cc23)CC1
- EC50 (cells [4]): > 350 µM (not active)
- EC50 (cells [5]): > 350 µM (not active)

Reference: ChEMBL document CHEMBL1201862, “PubChem BioAssay data set” (2004)
